Consider four molecules from patent US20170112791A1, “SOLID FORMULATIONS CONTAINING OMEGA-3 AND RESVERATROL” (SIGMA-TAU INDUSTRIE FARMACEUTICHE RIUNITE S.P.A., priority 2014, published 2017).

Data set [1] is described as follows: Stability after autoxidation induced by radiation (light, 24 hours). The class given is physicochemical. To be noted: initial tests (Tables 2 and 3: radiation and high temperature). The protocol:
(§1) The HPLC Analysis was the analysis performed in order to evaluate the stability of the formulations. It was performed using a Column Symmetry C-18 4.6×150 mm, a solution of CH3CN/CH3OH/H2O 45/45/10 as eluent, a flow of 1 ml/min and a Mass spectrometry Detector. The percent amount of EPA and DHA detected are expressed as % by weight. Other stability tests were also performed:
Stability analysis after autoxidation induced by radiation and by high temperature was performed according to the following procedure: • Autoxidation induced by radiation: an amount of 100 mg of the formulation is dispersed in a 5 cm diameter Petri dish, which is placed at a distance of 12 cm from the light source and exposed to light for 24 hours. The light source is constituted by a 13 W lamp with an emission spectrum of from 300 to 640 nm, with peaks at: 440, 490, 540, 590 and 610 nm. The test is carried out at 22° C. at 60% RH • autoxidation induced by high temperature: an amount of 100 mg of the formulation is placed in an amber container and put in a stove at 60° C. for 1 month

A short description of data set [2]: Stability analysis of solid formulations on storage (HPLC recovery of EPA and DHA). The class given is physicochemical. The method, then: The formulations were divided into 3 groups and left respectively for 3 and 6 months at 25° C. at 60% RH (relative humidity), for 3 and 6 months at 30° C. at 60% RH or for 3 and 6 months at 40° C. at 70% RH.
as §1
n-3 PUFA were added to Neusilin U.S.-2 in small portions, manually mixing up to obtain a homogeneous solid. Stability tests are carried out at 25° C. at 60% RH, 30° C. at 60% RH and 40° C. at 70% RH as described above for 1, 3 and 6 months.

Regarding `CCCCCCCCCCCCCCCC(=O)OC[C@H](O)[C@H]1OC(=O)C(O)=C1O` [Ascorbyl palmitate, ascorbyl palmitate], the “improvement of stability of EPA and DHA in the initial tests” value (“improvement of stability of EPA and DHA” for short) in data set [1] is “able to improve the stability”.
As to `COC1=C(OC)C(=O)C(C/C=C(\C)CC/C=C(\C)CC/C=C(\C)CC/C=C(\C)CC/C=C(\C)CC/C=C(\C)CC/C=C(\C)CC/C=C(\C)CC/C=C(\C)CCC=C(C)C)=C(C)C1=O` [Coenzyme Q10], the “improvement of stability of EPA and DHA” value in data set [1] is listed as “able to improve the stability”.
In the case of `Oc1ccc(/C=C/c2cc(O)cc(O)c2)cc1` [Resveratrol, 3,5,4′-trihydroxy-trans-stilbene], in data set [2] (data of Table 4, 3 months), the “ability to maintain stable solid formulations containing omega-3 for longer periods” value is recorded as “the only natural antioxidant able to maintain stable solid formulations containing omega-3 for longer periods”. In addition, in data set [2] (from recovery after 3 months at 40° C., 1% antioxidant), the “antioxidant power with respect of that of α-tocopherol” value is recorded as “twice”. Further, the “improvement of stability of EPA and DHA” value in data set [1] is listed as “able to improve the stability”.
With `Cc1c(C)c2c(c(C)c1O)CC[C@@](C)(CCC[C@H](C)CCC[C@H](C)CCCC(C)C)O2` [α-tocopherol], the “improvement of stability of EPA and DHA” value in data set [1] was “able to improve the stability”.
